Literature values, collected in patent publication US6399819B1, “Process for purifying creatine” (BASF Aktiengesellschaft, priority 1999, dated 2002).

Conditions: recrystallization from water

temperature above which decomposition of creatine to creatinine and N-methylhydantoin increases to a level no longer acceptable: about 80 °C
Structure (SMILES): CN(CC(=O)O)C(=N)N [creatine]
